Patent US20250151724A1, “Liquid Soil Treatments Containing Choline” (Harrell's, LLC, priority 2023, published 2025)
Where two headings read alike, the source gives them in different places.

Tested on: 'A4' creeping bentgrass
Settings: for Root Diameter / Root Length / Root Surface Area / Root Volume / Root Viability: end of trial; for Root Viability: TTC method
Text: Mature ‘A4’ creeping bentgrass plugs (4″ diameter) were harvested from field plots and transplanted into 6-inch pots filled with a USGA (United States Golf Association) specification sand mix (fine sand with 10% calcined clay). The bentgrass was maintained at 15 mm and fertilized at 0.2 lb N/1,000 ft^2 at transplanting and then 0.15 lb N/1,000 ft^2 biweekly thereafter. After about 2 months of non-stressed growth with optimum temperature, water, fertilizer, and light, the pots were placed in a controlled environment growth chamber at 95° F. day (12 h)/77° F. night (12 h), light intensity at 400 μmol m^−2 s^−1, 12 h photoperiod, and 65% RH. Water was replaced 5 times weekly at 55% of measured evapotranspiration (ET). […] Four treatments were tested with 4 replications for each treatment. The choline chloride solution at the […] listed below was applied to the canopy at 2 gallons/1,000 ft^2 and the same amount of water was applied to the control (Treatment #1).
The treatments were as follows: • 1. Fertilized control (0.15 lb. Nitrogen (N) per 1,000 ft^2 every 14 days from 28-8-18 with UMAXX® fertilizer (Harrell's LLC, Lakeland, Florida) • 2. Choline at 0.125 oz./1,000 ft^2 biweekly+0.15 lb. N/1,000 ft^2 biweekly • 3. Choline at 0.25 oz./1,000 ft^2 biweekly+0.15 lb. N/1,000 ft^2 biweekly • 4. Choline at 0.5 oz./1,000 ft^2 biweekly+0.15 lb. N/1,000 ft^2 biweekly The rate and source of fertilization for treatments #2, 3, and 4 were the same as treatment #1 (fertilized control).
The stress period of the trial lasted for 8 weeks, and there was a total of 4 treatment applications. The following measurements/data were taken at day 0, 14, 28, 42, and 56: • a. Visual leaf color was rated on a 1-9 scale, with 1 indicating brown color and 9 indicating dark green color. • b. Photochemical efficiency was measured with chlorophyll fluorometer (OS-50II, Opti-Sciences, Inc., Hudson, NH). Three readings were collected from each pot and the average was used for statistical analysis. • c. Leaf chlorophyll content and carotenoids were extracted in acetone and measured with a spectrophotometer after incubation for 72 h. • d. Leaf proline content was determined based on the method of Bates et al. 1973 and as described by Wu et al. 2017. • e. Leaf antioxidant superoxide dismutase (SOD) activity was determined based on the method as described by Zhang et al. 2015. • f. Root viability, root samples were collected at the end of the trial and TTC method was used to measure root viability as described by Zhang et al., 2017. • g. Root growth characteristics (root length, root surface area, root diameter, root length density) were determined using WinRHIZO technology. • h. Root biomass of the whole pot was measured at day 56. For leaf chlorophyll, carotenoids, proline, and superoxide dismutase (SOD) activity, fresh samples were collected every two weeks and frozen with liquid and stored at −80° C. before lab analysis.

[1] = 0.125 oz/1000 ft^2 biweekly, day 0
[2] = 0.125 oz/1000 ft^2 biweekly, day 14
[3] = 0.125 oz/1000 ft^2 biweekly, day 28
[4] = 0.125 oz/1000 ft^2 biweekly, day 42
[5] = 0.125 oz/1000 ft^2 biweekly, day 56
[6] = 0.25 oz/1000 ft^2 biweekly, day 0
[7] = 0.25 oz/1000 ft^2 biweekly, day 14
[8] = 0.25 oz/1000 ft^2 biweekly, day 28
[9] = 0.25 oz/1000 ft^2 biweekly, day 42
[10] = 0.25 oz/1000 ft^2 biweekly, day 56
[11] = 0.5 oz/1000 ft^2 biweekly, day 0
[12] = 0.5 oz/1000 ft^2 biweekly, day 14
[13] = 0.5 oz/1000 ft^2 biweekly, day 28
[14] = 0.5 oz/1000 ft^2 biweekly, day 42
[15] = 0.5 oz/1000 ft^2 biweekly, day 56

## C[N+](C)(C)CCO.[Cl-] [Choline, choline chloride]
[1]
  Carotenoids: 1.05a mg/g Fresh Weight
  Chlorophyll: 3.04a mg/g Fresh Weight
  Leaf color (1-9, 9 = dark green): 8.0a
  Photochemical Efficiency (Fv/F^m): 0.726a
  Proline content: 64.1a μg/g FW
  SOD activity: 909.7a Unit/g FW
[2]
  Carotenoids: 0.88b mg/g Fresh Weight
  Chlorophyll: 2.40c mg/g Fresh Weight
  Leaf color (1-9, 9 = dark green): 7.1ab
  Photochemical Efficiency (Fv/F^m): 0.659a
  Proline content: 170.7a μg/g FW
  SOD activity: 906.4a Unit/g FW
[3]
  Carotenoids: 0.76c mg/g Fresh Weight
  Chlorophyll: 2.16b mg/g Fresh Weight
  Leaf color (1-9, 9 = dark green): 6.0b
  Photochemical Efficiency (Fv/F^m): 0.668a
  Proline content: 156.5a μg/g FW
  SOD activity: 865.7ab Unit/g FW
[4]
  Carotenoids: 0.69a mg/g Fresh Weight
  Chlorophyll: 1.74ab mg/g Fresh Weight
  Leaf color (1-9, 9 = dark green): 6.3b
  Photochemical Efficiency (Fv/F^m): 0.611ab
  Proline content: 156.1ab μg/g FW
  SOD activity: 752.3bc Unit/g FW
[5]
  Carotenoids: 0.67b mg/g Fresh Weight
  Chlorophyll: 1.72ab mg/g Fresh Weight
  Leaf color (1-9, 9 = dark green): 6.0b
  Photochemical Efficiency (Fv/F^m): 0.596ab
  Proline content: 139.7b μg/g FW
  Root Biomass: 1.269a g/pot
  SOD activity: 721.2bc Unit/g FW
0.125 oz/1000 ft^2 biweekly
  Root Diameter: 0.161b mm
  Root Length: 17.7ab cm/cm^3
  Root Surface Area: 0.90ab cm^2/cm^3
  Root Volume: 3.61ab cm^3/dm^3
  Root Viability: 0.78ab A490/g FW
[6]
  Carotenoids: 1.03a mg/g Fresh Weight
  Chlorophyll: 2.95a mg/g Fresh Weight
  Leaf color (1-9, 9 = dark green): 8.0a
  Photochemical Efficiency (Fv/F^m): 0.726a
  Proline content: 63.1a μg/g FW
  SOD activity: 870.8a Unit/g FW
[7]
  Carotenoids: 1.02a mg/g Fresh Weight
  Chlorophyll: 2.76a mg/g Fresh Weight
  Leaf color (1-9, 9 = dark green): 7.4a
  Photochemical Efficiency (Fv/F^m): 0.672a
  Proline content: 177.4a μg/g FW
  SOD activity: 930.7a Unit/g FW
[8]
  Carotenoids: 0.94a mg/g Fresh Weight
  Chlorophyll: 2.75a mg/g Fresh Weight
  Leaf color (1-9, 9 = dark green): 6.6a
  Photochemical Efficiency (Fv/F^m): 0.645a
  Proline content: 162.3a μg/g FW
  SOD activity: 885.1a Unit/g FW
[9]
  Carotenoids: 0.84a mg/g Fresh Weight
  Chlorophyll: 2.10ab mg/g Fresh Weight
  Leaf color (1-9, 9 = dark green): 6.7a
  Photochemical Efficiency (Fv/F^m): 0.648a
  Proline content: 169.5a μg/g FW
  SOD activity: 872.3a Unit/g FW
[10]
  Carotenoids: 0.84a mg/g Fresh Weight
  Chlorophyll: 1.99a mg/g Fresh Weight
  Leaf color (1-9, 9 = dark green): 6.6a
  Photochemical Efficiency (Fv/F^m): 0.615a
  Proline content: 267.1a μg/g FW
  Root Biomass: 1.273a g/pot
  SOD activity: 866.5a Unit/g FW
0.25 oz/1000 ft^2 biweekly
  Root Diameter: 0.170ab mm
  Root Length: 18.4a cm/cm^3
  Root Surface Area: 0.98a cm^2/cm^3
  Root Volume: 4.18a cm^3/dm^3
  Root Viability: 1.28a A490/g FW
[11]
  Carotenoids: 1.07a mg/g Fresh Weight
  Chlorophyll: 3.07a mg/g Fresh Weight
  Leaf color (1-9, 9 = dark green): 8.0a
  Photochemical Efficiency (Fv/F^m): 0.718a
  Proline content: 53.5a μg/g FW
  SOD activity: 878.3a Unit/g FW
[12]
  Carotenoids: 0.98ab mg/g Fresh Weight
  Chlorophyll: 2.67ab mg/g Fresh Weight
  Leaf color (1-9, 9 = dark green): 7.4a
  Photochemical Efficiency (Fv/F^m): 0.690a
  Proline content: 180.0a μg/g FW
  SOD activity: 911.1a Unit/g FW
[13]
  Carotenoids: 0.91ab mg/g Fresh Weight
  Chlorophyll: 2.54ab mg/g Fresh Weight
  Leaf color (1-9, 9 = dark green): 6.8a
  Photochemical Efficiency (Fv/F^m): 0.661a
  Proline content: 167.1a μg/g FW
  SOD activity: 900.7a Unit/g FW
[14]
  Carotenoids: 0.84a mg/g Fresh Weight
  Chlorophyll: 2.18a mg/g Fresh Weight
  Leaf color (1-9, 9 = dark green): 6.9a
  Photochemical Efficiency (Fv/F^m): 0.659a
  Proline content: 171.8a μg/g FW
  SOD activity: 836.4ab Unit/g FW
[15]
  Carotenoids: 0.83a mg/g Fresh Weight
  Chlorophyll: 2.01a mg/g Fresh Weight
  Leaf color (1-9, 9 = dark green): 6.9a
  Photochemical Efficiency (Fv/F^m): 0.610a
  Proline content: 278.0a μg/g FW
  Root Biomass: 1.270a g/pot
  SOD activity: 815.7ab Unit/g FW
0.5 oz/1000 ft^2 biweekly
  Root Diameter: 0.176a mm
  Root Length: 18.8a cm/cm^3
  Root Surface Area: 0.99a cm^2/cm^3
  Root Volume: 4.15a cm^3/dm^3
  Root Viability: 1.10a A490/g FW
